SMILES strings stand for the structures.

This test relates to 8XTBD luciferase reporter. In words: YAP Reporter Assay. It is filed as cell-based. Conditions: Homo sapiens, HEK-293T; HEK293T cells stably transfected with 8XTBD luciferase reporter and pRLTK; 24-hr incubation; starting from 3 μM, 1:3 dilution, 10 points; read-out: Firefly Luciferase IC50. How it is done: HEK293T cells stably transfected with 8XTBD luciferase reporter and pRLTK in 384-well plates were treated with the test compounds, starting from 3 μM (final concentration in assay plate), 1:3 dilution, and 10 points in quadruplicates. Post 24-hr incubation with compounds at 37° C. and 5% CO2, cells were lysed and 8XTBD-driven firefly luciferase and control TK-driven renilla luciferase activities were measured using Promega Dual-Luciferase Reporter Assay System.
Reagents: The reagents used for this study are: DMEM: Invitrogen #11960077, Dual-Glo Luciferase Assay System: Promega-E2980, Puromycin Dihydrochloride: Invitrogen-A1113803, 384-well plate: PerkinElmer-6007480, L-GLUTAMINE: Invitrogen-25030164, Hygromycin B: Invitrogen-10687010, and Penicillin-Streptomycin: Merk-TMS-AB2-C
Media: The media used for this assay were: Culture Medium: DMEM+1 ug/mL puromycin+200 ug/mL hygromycin (with 10% FBS+1 mM L-glutamine); and Assay Medium: DMEM (with 10% FBS+1 mM L-glutamine+1×P/S).
Cell Plating: The appropriate media was warmed at 37° C. by water bath: Culture Medium, Assay Medium, 1* D-PBS, 0.05% trypsin-EDTA. The cells were trypsinized after removing all media, then washed with 1* sterile D-PBS and then with 2 ml 0.05% trypsin-EDTA. The cells were then incubated at RT for one minute. Then 10 ml/75 cm2 flask Assay Medium was added to each flask. Using a 10 ml pipette, the cells were then gently resuspended in the media, until the clumps completely disappeared. The cells were then transferred into 50 ml centrifuge tubes and were centrifuged at 800 rpm for 5 mins. The medium was removed and the cells were resuspended with Assay Medium. An aliquot of cells was used to count the cell density (cells/ml). The cell suspension was then diluted with Assay Medium to a concentration of 6×10^4 cells/ml. 50 ul cells suspension was then plated to 384-well plate (PerkinElmer-6007480), 3×10^3 cells/well and the cells were incubated in an incubator at 37° C., 5% CO2.
Compound Treatment: In the afternoon (incubation of the plate with 3-4 hrs), the test compounds were added by Echo, starting from 3 uM (final concentration in the assay plate), 1:3 dilution, 10 points, quadruplicates. The plate was placed at 37° C., 5% CO2 incubator for 24 hrs.
Detection: The Dual-Glo Luciferase Reagent was prepared by transferring the contents of one bottle of Dual-Glo Luciferase Buffer to one bottle of Dual-Glo Luciferase Substrate to create the Dual-Glo Luciferase Reagent. Mixing was performed by inversion until the substrate was thoroughly dissolved. After mixing, the reagent was aliquoted into 15 ml tubes. In the afternoon (24 hrs post compound treatment), the DMEM+ medium in the 384 well plates were aspirated by Microplate Washer.
Measuring firefly luciferase activity: 20 ul Dual-Glo Luciferase Reagent was added to the 384-well plates. The plates were protected from light to prevent interference with the assay. The plates were shaken for 1 min followed centrifuging plates at 1000 rpm for 30 seconds. After waiting at least 10 minutes, the firefly luminescence was measured by Envision.
Measuring renilla luciferase activity: 20 ul Stop-Glo Reagent was added to the 384-well plates. The plates were shaken for 1 min and then centrifuged at 1000 rpm for 30 seconds. After waiting at least 10 minutes, the renilla luminescence was measured by Envision.
Compound IC50 and maximum inhibition on the firefly luciferase and renilla luciferase activities were reported separately.
(A reporter such as luciferase makes a cellular process visible.)
For `CNS(=O)(=O)c1ccc(NC2CCCCC2)c(-c2nnn(C3CCCC3)n2)c1` [Compound 18, 4-(cyclohexylamino)-3-(2-cyclopentyl-2H-tetrazol-5-yl)-N-methylbenzenesulfonamide], the concentration for half-maximal inhibition (IC50) lay within 100 to 1000 nM. Take `CNS(=O)(=O)c1ccc(NC2CCCCC2)c(-c2nnn(Cc3ccccc3F)n2)c1` [Compound 19, 4-(cyclohexylamino)-3-(2-(2-fluorobenzyl)-2H-tetrazol-5-yl)-N-methylbenzenesulfonamide]: the IC50 is ≤ 100 nM. On to `CNS(=O)(=O)c1ccc(NC2CCCCC2)c(-c2nnn(Cc3ccccc3)n2)c1` [Compound 20, 3-(2-benzyl-2H-tetrazol-5-yl)-4-(cyclohexylamino)-N-methylbenzenesulfonamide], for which the IC50 is ≤ 100 nM.

As to `CCCCn1nnc(-c2cc(S(=O)(=O)NC)ccc2NC2CCCCC2)n1` [Compound 21, 3-(2-butyltetrazol-5-yl)-4-(cyclohexylamino)-N-methyl-benzenesulfonamide], the IC50 was ≤ 100 nM. Then `CNS(=O)(=O)c1ccc(NC2CCCCC2)c(-c2nnn(C)n2)c1` [Compound 22, 4-(cyclohexylamino)-N-methyl-3-(2-methyl-2H-tetrazol-5-yl)benzenesulfonamide], with ≤ 100 nM. For the compound `CNS(=O)(=O)c1ccc(NC2CCCCC2)c(-c2nnn(-c3ccccc3F)n2)c1` [Compound 23, 4-(cyclohexylamino)-3-(2-(2-fluorophenyl)-2H-tetrazol-5-yl)-N-methylbenzenesulfonamide], the IC50 was in the range of 100 to 1000 nM. Then `CNS(=O)(=O)c1ccc(NC2CCCCC2)c(-c2nnn(C3CCN(C(=O)OC(C)(C)C)C3)n2)c1` (stereo not shown) [Compound 24, tert-butyl 3-(5-(2-(cyclohexylamino)-5-(N-methylsulfamoyl)phenyl)-2H-tetrazol-2-yl)pyrrolidine-1-carboxylate], with > 3000 nM. As for `CNS(=O)(=O)c1ccc(NC2CCCCC2)c(-c2nnn(C3CN(C(=O)OC(C)(C)C)C3)n2)c1` [Compound 25, tert-butyl 3-(5-(2-(cyclohexylamino)-5-(N-methylsulfamoyl)phenyl)-2H-tetrazol-2-yl)azetidine-1-carboxylate], the IC50 is > 3000 nM. Then `CNS(=O)(=O)c1ccc(NC2CCCCC2)c(-c2nnn(C(C)C)n2)c1` [Compound 26, 4-(cyclohexylamino)-3-(2-isopropyl-2H-tetrazol-5-yl)-N-methylbenzenesulfonamide], with ≤ 100 nM; and `CNS(=O)(=O)c1ccc(NC2CCCCC2)c(-c2nnn(CC(C)C)n2)c1` [Compound 27, 4-(cyclohexylamino)-3-(2-isobutyl-2H-tetrazol-5-yl)-N-methylbenzenesulfonamide], with 100 to 1000 nM; and `CNS(=O)(=O)c1ccc(NC2CCCCC2)c(-c2nnn(C3CCN(C(=O)OC(C)(C)C)CC3)n2)c1` [Compound 28, tert-butyl 4-(5-(2-(cyclohexylamino)-5-(N-methylsulfamoyl)phenyl)-2H-tetrazol-2-yl)piperidine-1-carboxylate], with > 3000 nM. For `CNS(=O)(=O)c1ccc(NC2CCCCC2)c(-c2nnn(Cc3cccnc3)n2)c1` [Compound 29, 4-(cyclohexylamino)-N-methyl-3-(2-(pyridin-3-ylmethyl)-2H-tetrazol-5-yl)benzenesulfonamide] the value was ≤ 100 nM. Then `CNS(=O)(=O)c1ccc(NC2CCCCC2)c(-c2nnn(C3CCNCC3)n2)c1` [Compound 30, 4-(cyclohexylamino)-N-methyl-3-(2-(piperidin-4-yl)-2H-tetrazol-5-yl)benzenesulfonamide], with > 3000 nM; and `CNS(=O)(=O)c1ccc(NC2CCCCC2)c(-c2nnn(C3CCN(C(C)=O)CC3)n2)c1` [Compound 31, 3-(2-(1-acetylpiperidin-4-yl)-2H-tetrazol-5-yl)-4-(cyclohexylamino)-N-methylbenzenesulfonamide], with 100 to 1000 nM.

In the case of `CNS(=O)(=O)c1ccc(NC2CCCCC2)c(-c2nnn(C3CCN(S(C)(=O)=O)CC3)n2)c1` [Compound 32, 4-(cyclohexylamino)-N-methyl-3-(2-(1-(methylsulfonyl)piperidin-4-yl)-2H-tetrazol-5-yl)benzenesulfonamide], the IC50 is > 3000 nM. Then `CNS(=O)(=O)c1ccc(NC2CCCCC2)c(-c2nnn(C3CCN(c4cccnc4)CC3)n2)c1` [Compound 33, 4-(cyclohexylamino)-N-methyl-3-(2-(1-(pyridin-3-yl)piperidin-4-yl)-2H-tetrazol-5-yl)benzenesulfonamide], with 100 to 1000 nM; and `CNS(=O)(=O)c1ccc(NC2CCCCC2)c(-c2nnn(-c3ccccc3)n2)c1` [Compound 34, 4-(cyclohexylamino)-N-methyl-3-(2-phenyl-2H-tetrazol-5-yl)benzenesulfonamide], with > 3000 nM. As for `CNS(=O)(=O)c1ccc(NC2CCCCC2)c(-c2nnn(C3CCNC3)n2)c1` (stereo not shown) [Compound 35, 4-(cyclohexylamino)-N-methyl-3-(2-(pyrrolidin-3-yl)-2H-tetrazol-5-yl)benzenesulfonamide], the IC50 is > 3000 nM. For `CNS(=O)(=O)c1ccc(NC2CCCCC2)c(-c2nnn(C3CCN(C(C)C)C3)n2)c1` (stereo not shown) [Compound 36, 4-(cyclohexylamino)-3-(2-(1-isopropylpyrrolidin-3-yl)-2H-tetrazol-5-yl)-N-methylbenzenesulfonamide] the value was 1000 to 3000 nM; for `CNS(=O)(=O)c1ccc(NC2CCCCC2)c(-c2nnn(C3CCN(c4ccccc4)C3)n2)c1` (stereo not shown) [Compound 37, 4-(cyclohexylamino)-N-methyl-3-(2-(1-phenylpyrrolidin-3-yl)-2H-tetrazol-5-yl)benzenesulfonamide], > 3000 nM; for `CNS(=O)(=O)c1ccc(NC2CCCCC2)c(-c2nnn(C3CCN(c4ccccc4)CC3)n2)c1` [Compound 38, 4-(cyclohexylamino)-N-methyl-3-(2-(1-phenylpiperidin-4-yl)-2H-tetrazol-5-yl)benzenesulfonamide], > 3000 nM. Then `CNS(=O)(=O)c1ccc(NC2CCCCC2)c(-c2nnn(CC(F)(F)F)n2)c1` [Compound 39, 4-(cyclohexylamino)-N-methyl-3-(2-(2,2,2-trifluoroethyl)-2H-tetrazol-5-yl)benzenesulfonamide], with 100 to 1000 nM; and `CNS(=O)(=O)c1ccc(NC2CCCCC2)c(-c2nnn(CCF)n2)c1` [Compound 40, 4-(cyclohexylamino)-3-(2-(2-fluoroethyl)-2H-tetrazol-5-yl)-N-methylbenzenesulfonamide], with ≤ 100 nM. For the compound `CNS(=O)(=O)c1ccc(NC2CCCCC2)c(-c2nnn(Cc3ccc(F)cc3)n2)c1` [Compound 41, 4-(cyclohexylamino)-3-(2-(4-fluorobenzyl)-2H-tetrazol-5-yl)-N-methylbenzenesulfonamide], the IC50 was in the range of 100 to 1000 nM. For `CNS(=O)(=O)c1ccc(NC2CCCCC2)c(-c2nnn(C3CCN(C(C)=O)C3)n2)c1` (stereo not shown) [Compound 42, 3-(2-(1-acetylpyrrolidin-3-yl)-2H-tetrazol-5-yl)-4-(cyclohexylamino)-N-methylbenzenesulfonamide] the value was 100 to 1000 nM; for `CNS(=O)(=O)c1ccc(NC2CCCCC2)c(-c2nnn(C3CCN(S(C)(=O)=O)C3)n2)c1` (stereo not shown) [Compound 43, 4-(cyclohexylamino)-N-methyl-3-(2-(1-(methylsulfonyl)pyrrolidin-3-yl)-2H-tetrazol-5-yl)benzenesulfonamide], > 3000 nM. For `CNS(=O)(=O)c1ccc(NC2CCCCC2)c(-c2nnn(CCO)n2)c1` [Compound 44, 4-(cyclohexylamino)-3-(2-(2-hydroxyethyl)-2H-tetrazol-5-yl)-N-methylbenzenesulfonamide] the value was 100 to 1000 nM; for `CNS(=O)(=O)c1ccc(NC2CCCCC2)c(-c2nnn(-c3cccnc3)n2)c1` [Compound 45, 4-(cyclohexylamino)-N-methyl-3-(2-(pyridin-3-yl)-2H-tetrazol-5-yl)benzenesulfonamide], ≤ 100 nM.

Usually IC50 stands for the concentration that inhibits the measured activity by half.

Values taken from US11192865B2, “Benzosulfonyl compounds” (Vivace Therapeutics, Inc., priority 2017, dated 2021).
